The text below walks through data of patent EP1203770A1 (priority 1992, dated 1994).

This test has as its target T1, HIV-1 protease (Human immunodeficiency virus type 1 group M subtype B, UniProt P04585).
T1 construct: The protease (or proteinase), consisting of only 99 amino acids, is among the smallest enzymes known
As to the kind of experiment: In vitro HIV protease inhibitory assay (HIV Protease FITC Assay). Type of test: biochemical. The note with it: for inhibition at 0.41 µM: HIV-1 Dose 0.410 uM; for inhibition at 0.41 µM / inhibition at 1.23 µM / inhibition at 3.7 µM / inhibition at 11 µM / inhibition at 33 µM / inhibition at 100 µM / inhibition at 0.123 µM / inhibition at 0.37 µM / inhibition at 1.1 µM / inhibition at 3.3 µM / inhibition at 10 µM / inhibition at 30 µM / inhibition at 1 µM: read-out: HIV-1 Protease % Inhib; for inhibition at 1.23 µM: HIV-1 Dose 1.230 uM; for inhibition at 3.7 µM: HIV-1 Dose 3.700 uM; for inhibition at 11 µM: HIV-1 Dose 11.000 uM; for inhibition at 33 µM: HIV-1 Dose 33.000 uM; for Ki: read-out: HIV-1 FITC Ki. The gist of the method: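 Percent inhibition was read as fluorescence after avidin-bead capture and filtration separated FITC cleavage product from biotinylated substrate. Enzyme and substrate reacted 1 h, RT, dark, at pH 5.5 (0.1 M sodium acetate, 1.0 M NaCl, 0.05% NP-40).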

Structures can show the parent of a compound that is named as a salt. Where two headings read alike, the source gives them in different places.

Take `CCC(CC1CCCO1)c1cc(O)c(C(c2ccccc2)C2CC2)c(=O)o1` (stereo not drawn) [Example 56, 3-(Cyclopropyl-phenyl-methyl)-4-hydroxy-6-(1-(tetrahydro-furan-2-ylmethyl)-propyl)-pyran-2-one]: the inhibition at 0.41 µM turned out to be 92.6%, the inhibition at 1.23 µM worked out at 97.7%, the inhibition at 3.7 µM is 106% and the inhibition at 11 µM came to 117%. The inhibition at 33 µM was determined as 119% and the Ki (in general, the equilibrium dissociation constant of an inhibitor or competing ligand from its target) was determined as 37 nM. The inhibition at 100 µM (HIV-1 Dose 100.000 uM) was 109%.
As for `O=c1oc(CC(O)c2ccc(F)cc2)cc(O)c1C(c1ccccc1)C1CC1` (stereo not drawn) [Example 148, 3-(α-cyclopropylbenzyl)-4-hydroxy-6-(β-hydroxy-p-fluorophenethyl)-2H-pyran-2-one], the Ki worked out at 161 nM. Moreover, where the note is “HIV-1 Dose 0.123 uM”, the inhibition at 0.123 µM was below 10%. Moreover, the inhibition at 0.37 µM (HIV-1 Dose 0.370 uM) was found to be 22.4%. Moreover, the inhibition at 1.1 µM (HIV-1 Dose 1.100 uM) came out at 52%. The inhibition at 3.3 µM (HIV-1 Dose 3.300 uM) is 80.3%. Besides, for the setting “HIV-1 Dose 10.000 uM”, the inhibition at 10 µM amounted to 91.9%. The inhibition at 30 µM (HIV-1 Dose 30.000 uM) was 89.7%. In addition, for the setting “HIV-1 Dose 100.000 uM”, the inhibition at 100 µM was determined as 130%.
Turning to `COCCOCCCc1oc(=O)c(C(c2ccccc2)C2CC2)c(O)c1CCOCCOC` (stereo not drawn) [Example 103], the inhibition at 1 µM (HIV-1 Dose 1.000 uM) is 26.6%. Also, the inhibition at 10 µM (HIV-1 Dose 10.000 uM) was found to be 31.3%. Moreover, the inhibition at 100 µM (HIV-1 Dose 100.000 uM) was found to be 83%.
As to `CCC(C1=C(O)CC2(CCCCC2)OC1=O)c1ccccc1` (stereo not drawn) [Example 33, 4-Hydroxy-1-oxa-3-(1-phenylpropyl)spiro-[5,5]-undec-3-en-2-one, sodium salt], the inhibition at 1 µM worked out at 10.2%, the inhibition at 10 µM is 68.5% and the inhibition at 100 µM stood at 80.7%.
Turning to `CCC(Cc1ccncc1)c1cc(O)c(C(c2ccccc2)C2CC2)c(=O)o1` (stereo not drawn) [Example 68, 3-(Cyclopropyl-phenyl-methyl)-4-hydroxy-6-(1-pyridin-4-ylmethyl-propyl)-pyran-2-one], the Ki was 132 nM. Where the note is “HIV-1 Dose 0.123 uM”, the inhibition at 0.123 µM is below 10%. For the same compound, the inhibition at 0.37 µM (HIV-1 Dose 0.370 uM) stood at 15.1%. Besides, the inhibition at 1.1 µM (HIV-1 Dose 1.100 uM) came out at 47.7%. Besides, where the note is “HIV-1 Dose 3.300 uM”, the inhibition at 3.3 µM worked out at 80.3%. Moreover, where the note is “HIV-1 Dose 10.000 uM”, the inhibition at 10 µM was 98.7%. In addition, the inhibition at 30 µM (HIV-1 Dose 30.000 uM) was determined as 112%.
Turning to `CCC(Cc1ccccc1)c1oc(=O)c(C(CC)c2ccccc2)c(O)c1Br` (stereo not drawn) [Example 111, 6-(1-Benzyl-propyl)-5-bromo-4-hydroxy-3-(1-phenyl-propyl)-pyran-2-one], the inhibition at 0.41 µM was determined as 41.7%, the inhibition at 1.23 µM worked out at 66.2%, the inhibition at 3.7 µM came out at 92.2% and the inhibition at 11 µM stood at 103%. Further, the inhibition at 33 µM was 102% and the Ki turned out to be 255 nM. The inhibition at 100 µM (HIV-1 Dose 100.000 uM) is 109%.
On to `CCC(CC1COc2ccccc2O1)c1cc(O)c(C(c2ccccc2)C2CC2)c(=O)o1` (stereo not drawn) [Example 74, 3-(Cyclopropyl-phenyl-methyl)-6-[1-(2,3-dihydro-benzo[1,4]dioxin-2-ylmethyl)-propyl]-4-hydroxy-pyran-2-one], for which the Ki was 186 nM. The inhibition at 0.123 µM (HIV-1 Dose 0.123 uM) was below 10%. The inhibition at 0.37 µM (HIV-1 Dose 0.370 uM) was determined as 17.5%. Also, the inhibition at 1.1 µM (HIV-1 Dose 1.100 uM) worked out at 53.4%. Further, the inhibition at 3.3 µM (HIV-1 Dose 3.300 uM) turned out to be 81.4%. Further, the inhibition at 10 µM (HIV-1 Dose 10.000 uM) was 96.7%. For the same compound, the inhibition at 30 µM (HIV-1 Dose 30.000 uM) was found to be 106%.
`O=c1oc(CC(O)c2ccco2)cc(O)c1C(c1ccccc1)C1CC1` (stereo not drawn) [Example 117, 3-(Cyclopropyl-phenyl-methyl)-6-(2-furan-2-yl-2-hydroxy-ethyl)-4-hydroxy-pyran-2]: under “HIV-1 Dose 0.123 uM”, the inhibition at 0.123 µM is below 10%. The inhibition at 0.37 µM (HIV-1 Dose 0.370 uM) was below 10%. Also, the inhibition at 1.1 µM (HIV-1 Dose 1.100 uM) turned out to be 17%. For the setting “HIV-1 Dose 3.300 uM”, the inhibition at 3.3 µM was found to be 51.2%. Also, the inhibition at 10 µM (HIV-1 Dose 10.000 uM) is 87%. Also, the inhibition at 30 µM (HIV-1 Dose 30.000 uM) worked out at 101%.
On to `O=c1oc(CCCCN2CCOCC2)cc(O)c1C(c1ccccc1)C1CC1` (stereo not drawn) [Example 48, 3-(Cyclopropyl-phenyl-methyl)-4-hydroxy-6-(4-morpholin-4-yl-butyl)-pyran-2-one], for which the inhibition at 0.41 µM is below 10%, the inhibition at 1.23 µM was below 10%, the inhibition at 3.7 µM was below 10% and the inhibition at 11 µM was below 10%. Also, the inhibition at 33 µM was determined as 31.3%. Further, the inhibition at 100 µM (HIV-1 Dose 100.000 uM) is 61.6%.
As for `C=CC(C1=C(O)CC2(CCCCC2Cc2ccccc2)OC1=O)c1ccccc1` (stereo not drawn) [Example 129, 7-Benzyl-4-hydroxy-3-(1-phenylallyl)-1-oxa-spire[5.5]undec-3-en-2-one], the inhibition at 0.123 µM is below 10%, the inhibition at 0.37 µM was below 10%, the inhibition at 1.1 µM came out at 43.5% and the inhibition at 3.3 µM was found to be 67.1%. Besides, the inhibition at 10 µM was 80.7% and the inhibition at 30 µM came to 83.4%.
In the case of `O=c1oc(CC2CCOCC2)cc(O)c1C(c1ccccc1)C1CC1` (stereo not drawn) [Example 144, 3-(Cyclopropylphenylmethyl)-4-hydroxy-6-[(tetrahydro-2H-pyran-4-yl)methyl]-2H-pyran-2-one], the inhibition at 0.123 µM (HIV-1 Dose 0.123 uM) was below 10%. The inhibition at 0.37 µM (HIV-1 Dose 0.370 uM) was below 10%. Also, the inhibition at 1.1 µM (HIV-1 Dose 1.100 uM) was below 10%. Besides, for the setting “HIV-1 Dose 3.300 uM”, the inhibition at 3.3 µM is below 10%. Moreover, where the note is “HIV-1 Dose 10.000 uM”, the inhibition at 10 µM is below 10%. Besides, the inhibition at 30 µM (HIV-1 Dose 30.000 uM) was 22.7%.
With `C=CC(c1ccccc1)c1c(O)cc(C(CCC)CCC)oc1=O` (stereo not drawn) [Example 41, 4-Hydroxy-3-(1-phenyl-allyl)-6-(1-propyl-butyl)-pyran-2-one], the inhibition at 1 µM (HIV-1 Dose 1.000 uM) came out at 21.2%. Also, for the setting “HIV-1 Dose 10.000 uM”, the inhibition at 10 µM amounted to 65.9%. Also, the inhibition at 100 µM (HIV-1 Dose 100.000 uM) turned out to be 80.9%.
For `C=CC(C1=C(O)CC2(CCCCCCC2)OC1=O)c1ccccc1` (stereo not drawn) [Example 125, 4-Hydroxy-3-(1-phenyl-2-propenyl)-1-oxaspiro[5.7]tridec-3-en-2-one], the inhibition at 0.123 µM (HIV-1 Dose 0.123 uM) is below 10%. The inhibition at 0.37 µM (HIV-1 Dose 0.370 uM) was below 10%. In addition, the inhibition at 1.1 µM (HIV-1 Dose 1.100 uM) stood at 15.4%. The inhibition at 3.3 µM (HIV-1 Dose 3.300 uM) stood at 45.7%. Also, the inhibition at 10 µM (HIV-1 Dose 10.000 uM) amounted to 71%. The inhibition at 30 µM (HIV-1 Dose 30.000 uM) came out at 89.7%.
As to `Cc1cc(O)c(CC=Cc2ccccc2)c(=O)o1` [Example 122, 4-Hydroxy-6-methyl-3-(3-phenyl-prop-2-enyl)-2H-Pyran-2-one], under “HIV-1 Dose 100.000 uM”, the inhibition at 100 µM stood at 26%.
As for `CCC(Cc1cccc2ccccc12)c1cc(O)c(C(CC)c2ccccc2)c(=O)o1` (stereo not drawn) [Example 19, 3-(α-ethylbenzyl)-4-hydroxy-6-(1-ethyl-2-naphth-1-ylethyl)-2H-Pyran-2-one], the inhibition at 1 µM (HIV-1 Dose 1.000 uM) came to 11%. Also, the inhibition at 10 µM (HIV-1 Dose 10.000 uM) was determined as 79.3%. For the same compound, under “HIV-1 Dose 100.000 uM”, the inhibition at 100 µM was 84.3%.
Taken in the same sequence, the figures for `CCCC1(c2ccccc2)CC(O)=C(C(CC)c2cccc(O)c2)C(=O)O1` (stereo not drawn) [Example 30, 5,6-Dihydro-4-hydroxy-6-phenyl-6-propyl-3-[1-(3-hydroxyphenyl)-propyl]-2H-pyran-2-one] were 46.4%, 86% and 75.7%.
As for `CCC(Cc1ccccc1)c1cc(O)c(C(c2cccc(NC(=O)CC[C@H](NC(=O)OCc3ccccc3)C(=O)OCc3ccccc3)c2)C2CC2)c(=O)o1` (stereo partly drawn) [Example 225, 3-(α-Cyclopropyl-meta-(N-benzyloxycarbonyl-O-α-benzyl-L-glutamylamino)benzyl)-6-(α-ethylphenethyl)-4-hydroxy-2H-pyran-2-one], the inhibition at 0.123 µM (HIV-1 Dose 0.123 uM) is below 10%. The inhibition at 0.37 µM (HIV-1 Dose 0.370 uM) was below 10%. Besides, the inhibition at 1.1 µM (HIV-1 Dose 1.100 uM) is below 10%. Further, the inhibition at 3.3 µM (HIV-1 Dose 3.300 uM) was 21%. Also, the inhibition at 10 µM (HIV-1 Dose 10.000 uM) came to 30.6%. For the same compound, the inhibition at 30 µM (HIV-1 Dose 30.000 uM) was 35.5%.
Regarding `O=c1oc(CC(O)c2ccccc2Cl)cc(O)c1C(c1ccccc1)C1CC1` (stereo not drawn) [Example 151, 3-(α-cyclopropylbenzyl)-4-hydroxy-6-(β-hydroxy-o-chlorophenethyl)-2H-pyran-2-one], for the setting “HIV-1 Dose 0.123 uM”, the inhibition at 0.123 µM was below 10%. Also, where the note is “HIV-1 Dose 0.370 uM”, the inhibition at 0.37 µM was below 10%. Besides, the inhibition at 1.1 µM (HIV-1 Dose 1.100 uM) stood at 19.1%. Besides, the inhibition at 3.3 µM (HIV-1 Dose 3.300 uM) is 39.8%. Under “HIV-1 Dose 10.000 uM”, the inhibition at 10 µM amounted to 70.1%. In addition, the inhibition at 30 µM (HIV-1 Dose 30.000 uM) amounted to 88.4%. Under “HIV-1 Dose 100.000 uM”, the inhibition at 100 µM was found to be 113%.
For the compound `CCC(CC1CCN(S(=O)(=O)c2ccc(C)cc2)CC1)c1cc(O)c(C(c2ccccc2)C2CC2)c(=O)o1` (stereo not drawn) [Example 141, 4-[2-[3-(Cyclopropylphenylmethyl)-4-hydroxy-2-oxo-2H-pyran-6-yl]butyl]-1-[(4-methylphenyl)sulfonyl]-piperidine], for the setting “HIV-1 Dose 0.123 uM”, the inhibition at 0.123 µM was below 10%. Further, the inhibition at 0.37 µM (HIV-1 Dose 0.370 uM) was below 10%. Also, the inhibition at 1.1 µM (HIV-1 Dose 1.100 uM) was below 10%. Also, the inhibition at 3.3 µM (HIV-1 Dose 3.300 uM) was below 10%. Also, the inhibition at 10 µM (HIV-1 Dose 10.000 uM) amounted to 11.2%. Moreover, the inhibition at 30 µM (HIV-1 Dose 30.000 uM) amounted to 17%.
On to `CCC(CC1CCCOC1)c1cc(O)c(C(c2ccccc2)C2CC2)c(=O)o1` (stereo not drawn) [Example 61, 3-(Cyclopropyl-phenyl-methyl)-4-hydroxy-6-(1-(tetrahydro-pyran-3-ylmethyl)-propyl)-pyran-2-one], for which the inhibition at 0.41 µM was found to be 100%, the inhibition at 1.23 µM was found to be 101%, the inhibition at 3.7 µM came to 108% and the inhibition at 11 µM came to 111%. For the same compound, the inhibition at 33 µM was 111% and the Ki is 13 nM. Further, the inhibition at 100 µM (HIV-1 Dose 100.000 uM) came to 103%.
